Assay results published in article PMC7228089, “Odiparcil, a potential glycosaminoglycans clearance therapy in mucopolysaccharidosis VI—Evidence from in vitro and in vivo models” (PLoS ONE, 2020).

Legend:
[1] = test system: Arsb^- mice; experiment: Sulphated GAG accumulation in liver and kidney (Alcian Blue staining, Blyscan); type: in vivo; conditions: for Liver sulphated GAG accumulation / Kidney sulphated GAG accumulation: Arsb^- mice; for Liver sulphated GAG accumulation: 6 months of treatment; for Kidney sulphated GAG accumulation: Alcian Blue
Protocol: (§1) MPS VI model nonsense mutation Arsb^m1J homozygous mice (referred to as Arsb^- throughout the manuscript) and WT littermates were obtained from internal breeding of stock mice derived from The Jackson Laboratory strain No: 005598 (C57BL/6J-Arsb^m1J/GrsrJ). Genotyping and Arsb^m1J mutation identification were performed according to the protocol provided by The Jackson Laboratory. Each study group contained mix of male and female: 6 animals in disease progression studies and between 8 and 12 animals in odiparcil treatment studies.
Housing conditions. The animals were housed in groups of 3–10 (for mice) or 2 (for rats) in polypropylene cages (floor area = 1032 cm^2) under standard conditions: room temperature (22 ± 2°C), hygrometry (55 ± 10%), light/dark cycle (12h/12h), air replacement (15–20 volumes/hour), water and food ad libitum. Mice were allowed to habituate for at least 5 days prior to experimentation. Mice were numbered by marking their tail using indelible markers. For the early disease model (treatment starting in juvenile, 4 weeks old mice), odiparcil administration in the weeks 1 to 6 was done per gavage with odiparcil in Methylcellulose 400 cps 1% / Poloxamer 188 0.1% / Water, freshly prepared every week. Later on, administration was per chow diet with odiparcil mixed before diet granulation. For advanced disease treatment (treatment starting in adult, 3 months old mice), administration was per diet from the beginning of the study. WT and Arsb^- animals were randomized into groups: control and two doses of odiparcil: 1.5 g odiparcil per kg of diet and 4.5 g odiparcil per kg of diet. For urine collection, animals were placed for 24 hours in standard metabolism cages (2 or 3 animals per cage). At the end of the studies, animals were anesthetized (O2 / isoflurane), blood for smears was collected from ocular sinus and after euthanasia samples from liver and kidney (snap frozen for total GAG analysis by Blyscan method or fixed for histology, see below) and from trachea and knee from the left hind leg were collected.
Total sulphated GAG in cell culture media were determined colorimetrically by DMMB method (described in [31] adapted for cell culture media). Total sulphated GAG in snap frozen liver and kidney samples and urine were measured using Blyscan assay from Biocolor Company (UK) following manufacturer’s instructions. Urine samples were processed directly according to the kit manual. For GAG in tissues quantification, individual pieces (approximately 50 mg) were removed from the frozen samples (liver and kidney), weighed and digested in 1 mL papain solution prepared according to the Blyscan kit protocol. After the extraction, 20 μL from each reaction were used for sulphated GAG determination following the Blyscan kit protocol. The obtained values for sulphated GAG were adjusted to the volume of papain reaction and were normalized to the weight of the tissue used or, in the case of urine samples, to creatinine levels.
GAG tissue accumulation in liver and kidney sections was estimated based on Alcian Blue staining performed at low pH (pH 1), at which the dye stained predominantly sulphated GAG. Two slides at different levels per tissue block were used. Staining with 1% Alcian Blue in hydrochloric acid was performed on automated Leica Autostainer. […] Then for each proof image, an RGB index was calculated that was the mean of Red + Green + Blue intensities of all non-black pixels. […]

[2] = test system: Arsb^- mice; experiment: Granule accumulation in leukocytes (May-Grunwald-Giemsa blood smears); type: in vivo; conditions: early disease treatment, 6 months, high dose (4.5 g/kg diet)
Protocol: as §1
Housing conditions. The animals were housed in groups of 3–10 (for mice) or 2 (for rats) in polypropylene cages (floor area = 1032 cm^2) under standard conditions: room temperature (22 ± 2°C), hygrometry (55 ± 10%), light/dark cycle (12h/12h), air replacement (15–20 volumes/hour), water and food ad libitum. Mice were allowed to habituate for at least 5 days prior to experimentation. Mice were numbered by marking their tail using indelible markers. […]
Quantification of the accumulation of granules in leukocytes was done after May-Grunwald–Giemsa staining of blood smears and microscopic examination. […] Only blood smears from WT chow diet, Arsb^- chow diet and Arsb^- treated with high dose of odiparcil (4.5 g/kg diet) were analyzed. […]

[3] = test system: Primary skin fibroblasts from MPS VI patients GM00538 and GM02572; experiment: Intracellular chondroitin sulphate ([CS-56] immunofluorescence) in MPS VI patient skin fibroblasts; type: cell-based, human; conditions: 72 h
Protocol: Primary skin fibroblasts from MPS VI patients GM00538 and GM02572 were obtained from the NIGMS Human Genetic Cell Repository at the Coriell Institute for Medical Research. Cell culturing was done according to the conditions provided by the Coriell Institute. For evaluation of the effect of odiparcil, cells were seeded in 96 well imaging plates (Falcon Cat N 353219) and two types of treatment were evaluated: i) prophylactic conditions—cells were treated with odiparcil before reaching confluence, 24 hours after plating; and ii) curative conditions—cells were treated with odiparcil after reaching confluence (10 days culturing). Cells were treated by odiparcil added to the culture media. This was done by replacing the initial culture media by media containing 0.1% DMSO with or without odiparcil (at 0.01, 0.03, 0.1, 0.3, 1, 3 and 10 μM). For treatment, the cells were incubated for 72 hours at 37°C, 5% CO2. All experimental conditions were performed in triplicate, i.e., 3 wells/test condition.
After odiparcil treatment as described above, culture media were removed to be used for dimethylmethylene blue (DMMB) assay and the cells were fixed in PFA 4%. […]
For statistical analyses, commercial software (GraphPad Prism 5) was used. EC50 were calculated using the build in function Nonlinear fit for “log (inhibitor) vs. response—Variable slope (four parameters)”. […]

SMILES: Cc1cc(=O)oc2cc(O[C@@H]3SC[C@@H](O)[C@H](O)[C@H]3O)ccc12 [Odiparcil, 4-methyl-7-(5-thio-β-D-xylopyranosyloxy)-2 H-chromen-2-one]
- Liver sulphated GAG accumulation ([1]; early disease model, 1.5 and 4.5 g/kg diet): significantly reduced liver GAG at both doses
- Kidney sulphated GAG accumulation ([1]; early disease model, 6 months, effect not significant): reduced kidney GAG
- Liver sulphated GAG accumulation ([1]; established disease model, highest dose (4.5 g/kg diet)): significantly reduced liver GAG
- Kidney sulphated GAG accumulation ([1]; established disease model, 6 months): significant only in the latter model
- Liver and kidney GAG levels in wild type animals ([1]; wild type mice, two doses of odiparcil, 6 months): no significant effects on GAG levels
- Leukocytes with high granules accumulation [2]: reduced number of leukocytes with high granules accumulation
- Effect on intracellular pool of CS ([3]; 10 μM odiparcil): almost completely eliminated intracellular pool of CS
- EC50 ([3]; Homo sapiens, Skin fibroblast, growing and confluent cell culture conditions, read-out: EC50 for the reduction of intracellular CS levels): ~1 µM
